PubChem BioAssay AID248 (DTP/NCI, 2004)
Several values for one entry are separate records, joined by “and”; a condition that tells them apart may be missing. Equal entries are not always repeated. Toxic doses and inconclusive results are not listed.

Tested on: L1210 leukemia ip in BDF1 mice, survival T/C
Assay: NCI In Vivo Anticancer Drug Screen. Data for tumor model L1210 Leukemia (intraperitoneal) in B6D2F1 (BDF1) mice
Conditions: endpoint: mean survival time, higher = longer survival
Outline: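 Transplanted-tumor mice were given test agent; controls received vehicle only. Survival readings from the two groups were divided (treated over control).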

[1] = dose: 100.0 mg/kg/injection, schedule: Q04DX003 (ip), vehicle: Klucel (hydroxypropylcellulose) (HPC)
[2] = dose: 200.0 mg/kg/injection, schedule: Q04DX003 (ip), vehicle: Klucel (hydroxypropylcellulose) (HPC)
[3] = dose: 400.0 mg/kg/injection, schedule: Q04DX003 (ip), vehicle: Klucel (hydroxypropylcellulose) (HPC)
[4] = dose: 100.0 mg/kg/injection, schedule: Q04DX002 (ip), vehicle: Klucel (hydroxypropylcellulose) (HPC)
[5] = dose: 200.0 mg/kg/injection, schedule: Q04DX002 (ip), vehicle: Klucel (hydroxypropylcellulose) (HPC)
[6] = dose: 400.0 mg/kg/injection, schedule: Q04DX002 (ip), vehicle: Klucel (hydroxypropylcellulose) (HPC)
[7] = dose: 100.0 mg/kg/injection, schedule: Q01DX009 (ip), vehicle: saline with Tween-80
[8] = dose: 200.0 mg/kg/injection, schedule: Q01DX009 (ip), vehicle: saline with Tween-80

In the case of `COc1cccc(C)c1NC(=O)NCCCl`, the T/C [1] is reported as 100 % of control, the T/C [2] is reported as 94 % of control and the T/C [3] is reported as 94 % of control.
`O=C1C=CC(c2ccccc2)(c2ccccc2)C=C1` was tested, and the T/C (dose: 25.0 mg/kg/injection, schedule: Q04DX002 (ip), vehicle: saline with Tween-80) was 93 % of control, the T/C (dose: 50.0 mg/kg/injection, schedule: Q04DX002 (ip), vehicle: saline with Tween-80) was 101 % of control and the T/C (dose: 100.0 mg/kg/injection, schedule: Q04DX002 (ip), vehicle: saline with Tween-80) was 96 % of control.
With `Cc1ccc(OC(=O)NC(C)(C)C)cc1` the T/C [4] was 105 % of control, the T/C [5] was 109 % of control and the T/C [6] was 105 % of control.
For `c1cc2c(cc1C1SCSCS1)OCO2`, the T/C (dose: 100.0 mg/kg/injection, schedule: Q01DX009 (ip), vehicle: Klucel (hydroxypropylcellulose) (HPC)) was 98 % of control, the T/C [1] was 96 % of control and the T/C (dose: 200.0 mg/kg/injection, schedule: Q01DX009 (ip), vehicle: Klucel (hydroxypropylcellulose) (HPC)) was 92 % of control. The T/C [2] was 98 % of control, the T/C (dose: 400.0 mg/kg/injection, schedule: Q01DX009 (ip), vehicle: Klucel (hydroxypropylcellulose) (HPC)) was 90 % of control and the T/C [3] was 98 % of control.
In the case of `CC(=O)c1ccc(Oc2ccccc2)cc1`, the T/C [4] is reported as 104 % of control, the T/C [5] is reported as 93 % of control and the T/C [6] is reported as 110 % of control.
With `O=c1cc(COc2ccc(O)cc2)[nH]c(=O)[nH]1` the T/C (dose: 100.0 mg/kg/injection, schedule: Q04DX003 (ip), vehicle: saline) was 101 % of control, the T/C (dose: 200.0 mg/kg/injection, schedule: Q04DX003 (ip), vehicle: saline) was 104 % of control and the T/C (dose: 400.0 mg/kg/injection, schedule: Q04DX003 (ip), vehicle: saline) was 89 % of control.
`CC(=O)OCC(OC(C)=O)C(OC(C)=O)C(/C=C/N=[N+]([O-])c1ccccc1)OC(C)=O` (stereo unspecified) was tested, and the T/C (dose: 50.0 mg/kg/injection, schedule: Q01DX001 (ip), vehicle: saline) was 100 % of control, the T/C (dose: 100.0 mg/kg/injection, schedule: Q01DX001 (ip), vehicle: saline) was 94 % of control and the T/C (dose: 200.0 mg/kg/injection, schedule: Q01DX001 (ip), vehicle: saline) was 100 % of control.
With `Clc1cc(Cl)c(C[N+]23CN4CN(CN(C4)C2)C3)cc1Cl` the T/C (dose: 12.5 mg/kg/injection, schedule: Q01DX009 (ip), vehicle: saline with Tween-80) was 102 % of control, the T/C (dose: 25.0 mg/kg/injection, schedule: Q01DX009 (ip), vehicle: saline with Tween-80) was 104 % of control and the T/C (dose: 50.0 mg/kg/injection, schedule: Q01DX009 (ip), vehicle: saline with Tween-80) was 102 % of control. For the same compound, the T/C [7] was 120 % of control and the T/C [8] was 121 % of control.
For `CCCCOC(=O)/C=C/C(=O)OCCCC`, the T/C [7] was 97 % of control, the T/C [8] was 101 % of control and the T/C (dose: 400.0 mg/kg/injection, schedule: Q01DX009 (ip), vehicle: saline with Tween-80) was 111 % of control.
In the case of `CNC1=C(N2CC2C)C(=O)C(NC)=C(N2CC2C)C1=O` (stereo unspecified), the T/C (dose: 0.31 mg/kg/injection, schedule: Q01DX009 (ip), vehicle: saline) is reported as 104 % of control and 108 % of control, the T/C (dose: 0.62 mg/kg/injection, schedule: Q01DX009 (ip), vehicle: saline) is reported as 104 % of control and the T/C (dose: 1.25 mg/kg/injection, schedule: Q01DX009 (ip), vehicle: saline) is reported as 114 % of control and 116 % of control. The T/C (dose: 1.56 mg/kg/injection, schedule: Q04DX003 (ip), vehicle: saline) was 101 % of control, the T/C (dose: 2.5 mg/kg/injection, schedule: Q01DX009 (ip), vehicle: saline) was 116 % of control and the T/C (dose: 3.12 mg/kg/injection, schedule: Q04DX003 (ip), vehicle: saline) was 98 % of control and 111 % of control and 115 % of control. For the same compound, the T/C (dose: 5.0 mg/kg/injection, schedule: Q01DX009 (ip), vehicle: saline) was 169 % of control, the T/C (dose: 6.25 mg/kg/injection, schedule: Q04DX003 (ip), vehicle: saline) was 109 % of control and 123 % of control and the T/C (dose: 10.0 mg/kg/injection, schedule: Q01DX001 (ip), vehicle: saline) was 96 % of control. For the same compound, the T/C (dose: 10.0 mg/kg/injection, schedule: Q01DX009 (ip), vehicle: saline) was 94 % of control and 119 % of control, the T/C (dose: 12.0 mg/kg/injection, schedule: Q04DX003 (ip), vehicle: saline) was 152 % of control and the T/C (dose: 12.5 mg/kg/injection, schedule: Q04DX003 (ip), vehicle: saline) was 152 % of control and 193 % of control. For the same compound, the T/C (dose: 25.0 mg/kg/injection, schedule: Q04DX003 (ip), vehicle: saline) was 96 % of control and 118 % of control and the T/C (dose: 50.0 mg/kg/injection, schedule: Q04DX003 (ip), vehicle: saline) was 98 % of control and 89 % of control.
